Test results taken from US11807852B2, “Compositions and methods for reactivating latent immunodeficiency virus” (The J. David Gladstone Institutes, a testamentary trust …, priority 2014, dated 2023).
Entries after “also recorded” stand apart in the source; their conditions may differ. Read-outs that look alike come from different tables or passages of the source.

How the values were obtained:
J-Lat 5A8 cells = experiment: SMYD5 shRNA knockdown in J-Lat 5A8 cells (qPCR, GFP flow cytometry); format: cell-based; details: for SMYD5 knockdown efficiency by qPCR: J-Lat 5A8 cells; for reactivation of viral latency (GFP) after CD3/28 antibody stimulation: suboptimal, medium or saturating doses, 24 hours
Method: ShRNA-expressing lentiviral vectors were purchased from Sigma-Aldrich. The plasmids TRCN000155095 (Target sequence: […]) (SEQ ID NO:76) and TRCN0000156306 (Target sequence: […]) (SEQ ID NO:77) were used to deplete SMYD5. The pLKO. I vector containing a scrambled shRNA was used as control. […]; 272:263-7), and titered for p24 content. […] Data were analyzed using FlowJo 9.5 (Tree Star).
RNA was isolated using RNeasy Plus Mini Kit (Qiagen) and reverse-transcribed using SuperScript III Reverse Transcriptase (Invitrogen) as per the manufacturer's instructions. Quantitative RT-PCR was carried out using Maxima SYBR Green qPCR Master Mix (Thermo Scientific) on SDS 2.4 software (Applied Biosystems) in a total volume of 12 μL. Primer efficiencies were around 100%. Dissociation curve analysis was performed after the end of the PCR to confirm the presence of a single and specific product.
To confirm results from the shRNA screen, SMYD5 was individually knocked down in J-Lat 5A8 cells. Cells were transduced with lentiviral vectors expressing two different shRNAs targeting SMYD5 or a scrambled control shRNA, followed by puromycin treatment to select successfully transduced cells. The shRNA knockdown was confirmed using qPCR and failed for #1 and was ˜50% effective for #2 (FIG. 26A). Cells were then stimulated with suboptimal, medium, or saturating doses of CD3/28 antibodies or were left unstimulated for 24 hours, followed by flow cytometry of GFP. […] To test effects of SMYD5 on basal HIV-1 transcription we analyzed RNAs from nonactivated control and SMYD5 knockdown cells with primers specific for the viral LTR; mRNAs for SMYD5 and the NF-κB factor p65 were used as controls (FIG. 26D). SMYD5 knockdown reduced basal HIV-1 transcription by ˜50% mirroring the knockdown efficiency of shRNA #2 (FIG. 26D). In independent experiments to investigate the biological role of SMYD5 during HIV transcription, HeLa cells were transfected with an HIV LTR luciferase construct and expression vectors for Tat and SMYD5. Overexpression of SMYD5 marked activation of a co-transfected viral LTR-luciferase reporter construct was observed (FIGS. 28A and 28B). To identify the target for SMYD5 in HIV-1 infection, we performed in vitro methylation assays with recombinant SMYD5 on purified human histones, Tat (aa 1-72) [SEQ ID NO. 39], NF-κB, RelA, Sp1, and P-TEFb components cyclin T1 and CDK9. Reactions included 3H-SAM and were performed with or without recombinant SMYD5 enzyme. After gel electrophoresis, coomassie staining and autoradiography no methylation was detected for RelA, Sp1, cyclin T1 and CDK9 (FIG. 27). However, histones H3 and H1 were weakly and Tat strongly methylated by SMYD5 (FIG. 27). To map the site of methylation in Tat, we performed in vitro methylation reactions using non-radiolabeled SAM and subjected them to reversed-phase liquid chromatography electrospray tandem mass spectrometry (LC-MS/MS). This analysis identified a single site, trimethylation of K41, identified in two distinct peptides (not shown). No mono or dimethylation at Tat K41 was observed.

[1] = test system: J-Lat A72 cell line (LTR-GFP)
Method: J-Lat (clones A2 and A72) cell lines were cultured as described in Jordan et al., EMBO J. 2003 Apr. 15:22(8):1868-77. Human αCD3/αCD28 beads (Life Technologies) were used at a concentration of 1 bead/cell ratio. JQ1 (Sigma-Aldrich) was used at a concentration of 0.1-10 μM. Ingenol 3,20-dibenzoate (Sigma-Aldrich) was used at concentrations of 5-200 nM, and SAHA (Sigma-Aldrich) was used at concentrations of 110 nM, 330 nM, or 1 μM.
HEK293T cells were obtained from the American Type Culture Collection. J-Lat (clones A2, A72, and 5A8) cell lines were described (Chan et al., 2013; Jordan et al., 2003). HEK293T cells were cultured in DMEM supplemented with 10% FBS, 1% L-glutamine and 1% penicillin-streptomycin (Life Technologies). J-Lat cells were cultured in RPMI supplemented with 10% FBS, 1% L-glutamine and 1% penicillin-streptomycin (Life Technologies). […] TNFα (Sigma-Aldrich) was used at 0.5-10 ng/ml. Human αCD3/αCD28 Dynabeads (Invitrogen) were used at a 1 bead/cell ratio. JQ1 (Cayman Chemical) was used at 0.1-10 μM. Ingenol 3,20-dibenzoate (Santa Cruz Biotechnology) was used at 5-200 nM, and SAHA (Merck) was used at 110 nM, 330 nM, or 1 μM. Phorbol 12-myristate 13-acetate (PMA) (Sigma) was used at 10 nM and ionomycin (Sigma) was used at a concentration of 500 nM. UNC926 (Tocris Bioscience) was used at a concentration of 10 nM-100 μM. AZ505. AZ506, and AZ391 were used at a concentration of 10 nM-10 μM.
ShRNA-expressing lentiviral vectors were purchased from Sigma-Aldrich. The pLKO.1 vector containing a scrambled shRNA was used as control. […] J-Lat 5A8, A72 and A2 cells were spininfected with virus (1 ng of p24 per 10^6 cells) containing shRNAs against KMTs or nontargeting control shRNAs and were selected with puronycin (2 μg/ml: Sigma). After 7 days of selection, cells were treated with the indicated concentration of drugs. The percentage of GFP^+ cells was determined after 18 h using a MACSQuant VYB FACS analyzer (Miltenyi Biotech GmbH). Cell viability was monitored by forward-and-side scatter analysis. Analysis was conducted on 3×10,000 live cells per condition. Data were analyzed using FlowJo 9.5 (Tree Star).

L3MBTL1 = target: T1, L3MBTL1 (Homo sapiens, UniProt Q9Y468); details: cited from earlier work
T1 sequence (Q9Y468 1-840): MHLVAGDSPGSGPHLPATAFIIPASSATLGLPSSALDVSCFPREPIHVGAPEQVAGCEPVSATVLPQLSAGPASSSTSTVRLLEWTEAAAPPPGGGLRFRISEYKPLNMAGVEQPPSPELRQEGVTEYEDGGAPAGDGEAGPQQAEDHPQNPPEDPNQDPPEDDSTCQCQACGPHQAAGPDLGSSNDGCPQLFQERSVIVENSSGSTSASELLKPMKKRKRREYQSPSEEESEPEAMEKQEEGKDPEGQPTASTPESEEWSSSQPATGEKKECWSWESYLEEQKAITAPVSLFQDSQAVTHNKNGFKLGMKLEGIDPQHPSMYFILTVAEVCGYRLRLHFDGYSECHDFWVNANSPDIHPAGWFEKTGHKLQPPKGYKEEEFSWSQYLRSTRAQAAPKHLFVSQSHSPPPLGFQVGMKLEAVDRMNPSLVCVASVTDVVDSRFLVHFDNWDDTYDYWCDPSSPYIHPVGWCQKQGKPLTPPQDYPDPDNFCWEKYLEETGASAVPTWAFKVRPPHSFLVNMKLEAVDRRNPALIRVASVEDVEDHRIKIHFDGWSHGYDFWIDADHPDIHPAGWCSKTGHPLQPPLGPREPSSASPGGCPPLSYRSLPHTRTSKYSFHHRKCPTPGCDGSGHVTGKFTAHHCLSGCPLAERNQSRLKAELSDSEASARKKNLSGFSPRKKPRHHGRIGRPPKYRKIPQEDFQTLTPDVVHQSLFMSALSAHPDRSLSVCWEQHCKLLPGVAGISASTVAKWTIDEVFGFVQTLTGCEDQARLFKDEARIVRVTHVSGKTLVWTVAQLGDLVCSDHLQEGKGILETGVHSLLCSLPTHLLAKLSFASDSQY

[2] = cited from earlier work
SMYD2 = SMYD2 (Homo sapiens, UniProt Q9NRG4); details: cited from earlier work
Chain of SMYD2 (Q9NRG4 whole entry): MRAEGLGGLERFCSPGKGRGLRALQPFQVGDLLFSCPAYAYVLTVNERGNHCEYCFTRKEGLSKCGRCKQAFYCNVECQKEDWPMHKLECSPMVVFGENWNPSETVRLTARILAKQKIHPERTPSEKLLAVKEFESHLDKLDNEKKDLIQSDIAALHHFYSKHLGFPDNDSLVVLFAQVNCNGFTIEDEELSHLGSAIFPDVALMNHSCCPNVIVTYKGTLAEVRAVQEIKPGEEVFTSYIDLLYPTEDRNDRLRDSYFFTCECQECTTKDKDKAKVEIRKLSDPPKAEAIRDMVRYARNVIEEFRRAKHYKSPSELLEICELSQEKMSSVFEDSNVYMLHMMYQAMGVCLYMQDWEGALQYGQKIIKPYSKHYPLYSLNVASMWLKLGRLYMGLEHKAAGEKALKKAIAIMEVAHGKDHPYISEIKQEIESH

[3] = test system: J-Lat cells (clone A2: LTR-Tat-IRES-GFP); format: cell-based; details: A2 J-Lat cells, single agent
Method: To test this hypothesis, J-Lat cells (clone A2: LTR-Tat-IRES-GFP) were treated with SMYD2 inhibitors. […] Both cell lines were co-treated with X2 and Ingenol 3,20-dibenzoate (a protein kinase C (PKC) activator), JQ1 (BET-bromodomain inhibitor), or the histone deacetylase (HDAC) inhibitor suberoylanilidehydroxamic acid (SAHA).

Molecule: shRNA #2: lentiviral shRNA targeting SMYD5 (SEQ ID NO:75) (CCGGCTGTGACACTCTGGAGTTGAACTCGAGTTCAACTCCAGAGTGTCACAGTTTTTTG)
- SMYD5 knockdown efficiency by qPCR (J-Lat 5A8 cells): ~50%
- reduction of basal HIV-1 transcription (viral LTR RNA, RT-qPCR) (J-Lat 5A8 cells; nonactivated cells): ~50%
- reactivation of viral latency (GFP) after CD3/28 antibody stimulation (J-Lat 5A8 cells): suppressed reactivation of viral latency

Molecule: UNC926 [reference compound]
- concentration at which activation is observed ([1]; A72, 10 nM-100 μM, without or with 0.1 ng/ml TNFα, 18 h): 100 µM
- viability by forward-side scatter analysis ([1]; A72, up to 100 μM, 18 h): No effect on viability
- basal transcriptional activity ([1]; A72 J-Lat cells): a doubling in basal transcriptional activity
- Kd (L3MBTL1): 3.9 µM

Molecule: O=C(NCCCN1CCCC1)c1cncc(-c2ccccc2N2CCN(CCc3c[nH]c4ccccc34)CC2)c1 [AZ506]
- cell permeability [2]: cell-permeable
- activation of GFP expression / reactivation of the HIV-LTR ([1]; A72 J-Lat cells, single agent): activated GFP expression at high concentrations

Molecule: shRNA #1: lentiviral shRNA targeting SMYD5 (SEQ ID NO:74) (CCGGGCTATGGGAATTACAACCCATCTCGAGATGGGTTGTAATTCCCATAGCTTTTTTG)
- SMYD5 knockdown efficiency by qPCR (J-Lat 5A8 cells): failed
- reactivation of viral latency (GFP) after CD3/28 antibody stimulation (J-Lat 5A8 cells): had no effect

Molecule: O=C1COc2c(CCNCCN(C(=O)CCNCCc3ccc(Cl)c(Cl)c3)C3CCCCC3)ccc(O)c2N1 [AZ505, N-cyclohexyl-3-((3,4-dichlorophenethyl)amino)-N-(2-((2-(5-hydroxy-3-oxo-3,4-dihydro-2H-benzo[b][1,4]oxazin-8-yl)ethyl)amino)ethyl)propanamide bis(2,2,2-trifluoroacetate), reference compound]
- Kd compared with the p53 peptide (SMYD2): approximately sevenfold lower than the p53 peptide
- cell permeability ([2]; bis(2,2,2-trifluoroacetate)): lack of cell permeability; also recorded: not cell-penetrable
- activation of HIV transcription / reactivation of the HIV-LTR (GFP) [3]: failure of AZ505 to effectively activate HIV transcription
